Test results: ChEMBL document CHEMBL1201862, “PubChem BioAssay data set” (2004)
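Tested at 5 concentrations; 48 h exposure; 96-well plates; endpoints linearly interpolated, else capped at highest concentration. Abbreviation: GI50, concentration required for 50% inhibition of growth.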 The source made the active and inactive calls. Cut-off read from the data, not from the text of the source: active = GI50 up to about 1.1 µM and inactive = higher.

Experiments:
Test in all cases: NCI-60 cell line screen, 48 h
HCC 2998 = test system: HCC 2998
SK-MEL-2 = test system: SK-MEL-2
TK-10 = test system: TK-10
SK-OV-3 = test system: SK-OV-3
CCRF-CEM = test system: CCRF-CEM
786-0 = test system: 786-0
SW-620 = test system: SW-620
M14 = test system: M14
SK-MEL-28 = test system: SK-MEL-28
KM12 = test system: KM12
MDA-MB-435 = test system: MDA-MB-435
OVCAR-4 = test system: OVCAR-4
IGROV-1 = test system: IGROV-1
ACHN = test system: ACHN
NCI-H23 = test system: NCI-H23
LOX IMVI = test system: LOX IMVI
HOP-92 = test system: HOP-92
SNB-19 = test system: SNB-19
HOP-62 = test system: HOP-62
COLO 205 = test system: COLO 205

SMILES	GI50 (HCC 2998)	GI50 (SK-MEL-2)	GI50 (TK-10)	GI50 (SK-OV-3)	GI50 (CCRF-CEM)	GI50 (786-0)	GI50 (SW-620)	GI50 (M14)	GI50 (SK-MEL-28)	GI50 (KM12)	GI50 (MDA-MB-435)	GI50 (OVCAR-4)	GI50 (IGROV-1)	GI50 (ACHN)	GI50 (NCI-H23)	GI50 (LOX IMVI)	GI50 (HOP-92)	GI50 (SNB-19)	GI50 (HOP-62)	GI50 (COLO 205)
c1ccc(-c2cc(-c3cccs3)c(-c3cccs3)o2)cc1	> 100 µM (inactive)	34.7 µM (inactive)	> 100 µM (inactive)	> 100 µM (inactive)	> 100 µM (inactive)	> 100 µM (inactive)	> 100 µM (inactive)	> 100 µM (inactive)	> 100 µM (inactive)	48.4 µM (inactive)	> 100 µM (inactive)	> 100 µM (inactive)	> 100 µM (inactive)	> 100 µM (inactive)	> 100 µM (inactive)	> 100 µM (inactive)	> 100 µM (inactive)	> 100 µM (inactive)	> 100 µM (inactive)	> 100 µM (inactive)
Cc1cc(O)c2c(c1)C(=O)C(c1c(C)cc3c(c1O)C(=O)C1OC1C3=O)=CC2=O (centres undefined)	5.93 µM (inactive)	10.7 µM (inactive)	1.1 µM (active)	17.7 µM (inactive)	0.0667 µM (active)	1.64 µM (inactive)	1.42 µM (inactive)	2.96 µM (inactive)	1.94 µM (inactive)	13.7 µM (inactive)	2.54 µM (inactive)	3.33 µM (inactive)	9.1 µM (inactive)	0.885 µM (active)	8.97 µM (inactive)	2.02 µM (inactive)	0.839 µM (active)	21.5 µM (inactive)	13.1 µM (inactive)	0.561 µM (active)
COC(=O)c1ccccc1CC(Cc1ccc2c(c1)CCC2)C(=O)OC (centres undefined)	> 100 µM (inactive)	> 100 µM (inactive)	> 100 µM (inactive)	> 100 µM (inactive)	47.3 µM (inactive)	> 100 µM (inactive)	> 100 µM (inactive)	> 100 µM (inactive)	> 100 µM (inactive)	33.6 µM (inactive)	66.1 µM (inactive)	> 100 µM (inactive)	> 100 µM (inactive)	> 100 µM (inactive)	> 100 µM (inactive)	> 100 µM (inactive)	> 100 µM (inactive)	> 100 µM (inactive)	> 100 µM (inactive)	> 100 µM (inactive)
CCOC(=O)c1c[nH]cc1-c1cn(S(=O)(=O)c2ccccc2)cc1C	17.5 µM (inactive)	32.2 µM (inactive)	35.6 µM (inactive)	25.9 µM (inactive)	24.9 µM (inactive)	37.1 µM (inactive)	> 10 µM (inactive)	21.7 µM (inactive)	19.8 µM (inactive)	19.6 µM (inactive)	> 10 µM (inactive)	39.4 µM (inactive)	26.9 µM (inactive)	18.9 µM (inactive)	24.6 µM (inactive)	23.4 µM (inactive)	26 µM (inactive)	31.8 µM (inactive)	31.5 µM (inactive)	20.1 µM (inactive)
Nc1ncnc2c1N=C(c1ccccc1)CC(c1ccccc1)N2 (centres undefined)	> 100 µM (inactive)	> 100 µM (inactive)	> 100 µM (inactive)	> 100 µM (inactive)	> 100 µM (inactive)	> 100 µM (inactive)	> 100 µM (inactive)	> 100 µM (inactive)	> 100 µM (inactive)	> 100 µM (inactive)	> 100 µM (inactive)	> 100 µM (inactive)	–	> 100 µM (inactive)	> 100 µM (inactive)	> 100 µM (inactive)	> 100 µM (inactive)	> 100 µM (inactive)	97.5 µM (inactive)	> 100 µM (inactive)
